The values below come from patent publication US20050197350A1, “Novel quinoline, tetrahydroquinazoline, and pyrimidine derivatives and methods of treatment related to the use thereof” (TAISHO PHARMACEUTICAL CO., LTD., priority 2003, published 2005).

The subject of the test is MCH receptors. The experiment in a line: MCH receptor activity class (method not given).
Where [1] appears, read: class by percent of control at 10^−7 M or IC50.
Setting [2] is: MCH receptor, class by percent of control at 10^-7 M or IC50.
[3] abbreviates: activity class 1-3: percent of control at 10^-7 M or IC50.
The mark [4] stands for this setting: class by percent of control at 10^-7 M or IC50.

SMILES strings stand for the structures.

For the compound `Cc1cnc(N[C@H]2CC[C@@H](NC(=O)c3cc(F)cc(C(F)(F)F)c3)CC2)nc1N(C)C` [compound 2930, N-(cis-4-{[4-(dimethylamino)-5-methylpyrimidin-2-yl]amino}cyclohexyl)-3-fluoro-5-(trifluoromethyl)benzamide], under setting [1], the class is given as 1 (Class 1: The value of percent of control at 10^−7 M was less than 40% or the value of IC50 was less than 50 nM.).
Turning to `Cc1cc(C(=O)N[C@H]2CC[C@@H](Nc3cc(N(C)C)c4ccccc4n3)CC2)c(C(F)(F)F)o1` [compound 70], under setting [2], the class is 3 (Class 3 The value of percent of control at 10^−7 M was more than 60% or the value of IC50 was more than 200 nM.).
In the case of `CN(C)c1nc(N[C@H]2CC[C@@H](NC(=O)Nc3ccccc3Br)CC2)nc2c1CCCC2` [compound 1693], the class under setting [3] is 3 (Class 3 The value of percent of control at 10^−7 M was more than 60% or the value of IC50 was more than 200 nM.).
On to `COc1ccc(NC(=O)N[C@H]2CC[C@@H](Nc3nc4c(c(N(C)C)n3)CCCC4)CC2)c(OC)c1` [compound 1711, N-(2,4-dimethoxyphenyl)-N′-(cis-4-{[4-(dimethylamino)-5,6,7,8-tetrahydroquinazolin-2-yl]amino}cyclohexyl)urea], for which the class under setting [4] is listed as 2 (Class 2: The value of percent of control at 10^−7 M was from 40% to 60% or the value of IC′50 was from 50 nM to 200 nM.).
`Cc1cccc(C(=O)N[C@H]2CC[C@@H](Nc3nccc(N(C)C)n3)CC2)c1N` [compound 922]: under setting [4], the class is 3 (Class 3 The value of percent of control at 10^−7 M was more than 60% or the value of IC50 was more than 200 nM.).
As for `CN(C)c1nc(N[C@H]2CC[C@@H](CNC(=O)c3cc(F)cc(F)c3)CC2)nc2c1CCCC2` [compound 596], for the setting “class 1-3 by percent of control at 10^-7 M or IC50”, the class was 3 (Class 3 The value of percent of control at 10^−7 M was more than 60% or the value of IC50 was more than 200 nM.).
On to `Cc1nc(N[C@H]2CC[C@@H](NC(=O)c3ccccn3)CC2)nc(N(C)C)c1C` [compound 2835], for which the class under setting [1] is on record as 3 (Class 3 The value of percent of control at 10^−7 M was more than 60% or the value of IC50 was more than 200 nM.).
As to `CN(C)c1cc(N[C@H]2CC[C@@H](NC(=O)C3C[C@H]3c3ccccc3)CC2)nc2ccccc12` (some centres unmarked) [compound 46], the class under setting [2] is given as 3 (Class 3 The value of percent of control at 10^−7 M was more than 60% or the value of IC50 was more than 200 nM.).
Consider `Cc1ccc(S(=O)(=O)n2ccc(C(=O)N[C@H]3CC[C@@H](Nc4nccc(N(C)C)n4)CC3)c2)cc1` [compound 901, N-(cis-4-{[4-(dimethylamino)pyrimidin-2-yl]amino}cyclohexyl)-1-[(4-methylphenyl)sulfonyl]-1H-pyrrole-3-carboxamide], for which the class under setting [4] was 2 (Class 2: The value of percent of control at 10^−7 M was from 40% to 60% or the value of IC′50 was from 50 nM to 200 nM.).
Take `COc1ccccc1Oc1ncccc1C(=O)NC[C@@H]1CC[C@H](Nc2ncc(C)c(N(C)C)n2)C1` [compound 3013]: the class under setting [1] was 1 (Class 1: The value of percent of control at 10^−7 M was less than 40% or the value of IC50 was less than 50 nM.).
`CN(C)c1nc(N[C@H]2CC[C@@H](NC(=O)OCc3ccccc3Cl)CC2)nc2c1CCCC2` [compound 1596]: under setting [3], the class is recorded as 3 (Class 3 The value of percent of control at 10^−7 M was more than 60% or the value of IC50 was more than 200 nM.).
Regarding `CCOc1cccc(C(=O)N[C@H]2CC[C@@H](Nc3nc(C)c(C)c(N(C)C)n3)CC2)c1` [compound 2861], the class under setting [1] is 1 (Class 1: The value of percent of control at 10^−7 M was less than 40% or the value of IC50 was less than 50 nM.).
With `CN(C)c1nc(N[C@H]2CC[C@@H](NC(=O)Nc3ccccc3C#N)CC2)nc2c1CCCC2` [compound 1915], under setting [2], the class is reported as 3 (Class 3 The value of percent of control at 10^−7 M was more than 60% or the value of IC50 was more than 200 nM.).
On to `CN(C)c1ccnc(N[C@H]2CC[C@@H](NC(=S)NCc3ccccc3Cl)CC2)n1` [compound 2324], for which the class (MCH receptor activity class 1-3 (percent of control at 10^-7 M or IC50)) was 3 (Class 3 The value of percent of control at 10^−7 M was more than 60% or the value of IC50 was more than 200 nM.).
